Experimental data reported in patent US20060104907A1, “Biologically potent analogues of the Dmt-Tic pharmacophore and methods of use” (Government of the U.S.A., represented by the Secretary, …, priority 2004, published 2006).
Structures can show the parent of a compound that is named as a salt. Where two headings read alike, the source gives them in different places.

Assays:
δ-opioid receptor [1] = target: T1, δ-opioid receptor (Homo sapiens, UniProt P41143); settings: cited from earlier work
δ-opioid receptor [2] = target: T1, δ-opioid receptor; settings: δ-opioid antagonist activity, literature; cited from earlier work
δ-opioid receptors [3] = target: T2, δ-opioid receptors (Rattus norvegicus, UniProt P33533); assay: Competitive receptor binding assay, rat brain synaptosomes (P2 fraction), [3H]DPDPE; settings: for fold decrease of δ-opioid receptor selectivity: compared to reference 1; for μ/δ (δ-opioid receptor selectivity): ratio Ki μ / Ki δ
T2 construct: using rat brain synaptosomes (P2 fraction); from tissue; host or cells: rat brain synaptosomes (P2 fraction)

μ-opioid receptors [4] = target: T3, μ-opioid receptors (Rattus norvegicus, UniProt P33535); assay: Competitive receptor binding assay, rat brain synaptosomes (P2 fraction), [3H]DAMGO
T3 construct: using rat brain synaptosomes (P2 fraction); from tissue; host or cells: rat brain synaptosomes (P2 fraction)

δ-opioid receptors [5] = target: T4, δ-opioid receptors (Mus musculus, UniProt P32300); assay: Functional bioactivity in mouse vas deferens (MVD), electrically-evoked twitch; assay type: cell-based
T4 construct: preparations of mouse vas deferens (MVD, containing δ-opioid receptors); from tissue; host or cells: mouse vas deferens
Experimental: (§1) Preparations of myenteric plexus-longitudinal muscle obtained from male guinea-pig ileum (GPI, enriched in μ-opioid receptors) and preparations of mouse vas deferens (MVD, containing δ-opioid receptors) were used for field stimulation with bipolar rectangular pulses of supramaximal voltage (Melchiorri et al., Eur. J. Pharm., 195: 201-207 (1991)). Agonists were evaluated for their ability to inhibit the electrically-evoked twitch. The biological potency of the compounds was compared with that of the μ-opioid receptor agonist dermorphin in GPI and with that of the δ-opioid receptor agonist deltorphin C in MVD. The results are expressed as the IC50 values obtained from dose-response curves (Prism™, GraphPad). To evaluate antagonistic properties, compounds 2 and 3 were added to the bath and allowed to interact with tissue receptor sites 5 min before adding deltorphin C. The IC50 values (nM) represent the mean of not less than six fresh tissue samples±SE. […] IC50 and pA2 values (nM) are mean ±SE of at least six experiments conducted with fresh tissues.

μ-opioid receptors [6] = assay: Functional bioactivity in guinea-pig ileum (GPI), electrically-evoked twitch; assay type: cell-based; settings: agonist activity, inhibition of electrically-evoked twitch
Experimental: as §1

mouse δ-opioid receptors = target: T5, mouse δ-opioid receptors (Mus musculus, UniProt P32300); assay: Confocal microscopic visualization of fluorescent probe binding in NG108-15 cells; assay type: cell-based; settings: for blockage of fluorescence of probe 3 bound to δ-opioid receptors: NG108-15 cells preincubated with antagonist (naltrindole 0.2 μM, 5 min) before adding the probe
T5 construct: NG108-15 (mouse N18 neuroblastoma x rat C6 glioma) cell line, which expresses mouse δ-opioid receptors; endogenous in cells; host or cells: NG108-15 (mouse N18 neuroblastoma x rat C6 glioma)
Experimental: Visualization of δ-opioid receptor sites with the inventive fluorescent probe was obtained by incubating (15 min at 35° C.) the fluorescent tripeptide 3 (0.2 μM) with the NG108-15 (mouse N18 neuroblastoma x rat C6 glioma) cell line, which expresses mouse δ-opioid receptors. […] Localization and visualization of opioid receptor binding sites were obtained by incubating the fluorescent probe with the NG108-15 cells as shown in the left half of the fluorescent photomicrograph obtained from the confocal scanning laser microscope (FIG. 3).

[7] = Fluorescence emission spectra and quantum yield; assay type: physicochemical; settings: Tris/HCl buffer pH 6.6, excitation 350 nm
Experimental: Fluorescence emission spectra were recorded on a Jobin Yvon-Spex FluoroMax-2 spectrofluorometer with 1 nm spectral resolution for excitation and emission. A peptide solution at a concentration of 2×10^−5M in Tris-HCl buffer, pH 6.6, was used. The excitation wavelength was 350 nm. Fluorescence quantum yield (φ) was determined relative to quinine sulfate (Fluka) in 1 N H2SO4 (φ=0.546) as a reference (Meech et al., Journal of Photochemistry, 23: 193 (1983)). The quantum yield was calculated according to the following equation: [formula] where the subscripts S and R refer to the sample ns and reference compound, respectively; E is the integrated area under the corrected emission spectrum; A is the absorbance of the solution at the excitation wavelength. Absorbance values were kept below 0.02 to minimise inner filter and self-quenching effects. Since both the sample and the reference were in aqueous solution, the correction for the refractive index (nS/nR)^2 was considered to be of no significant relevance.

δ-opioid receptors [8] = target: T2, δ-opioid receptors; settings: rat brain synaptosomes; data taken from Balboni et al., J. Med Chem. 2004; read-out: Receptor affinity Ki^δ; cited from earlier work
μ-opioid receptors [9] = target: T3, μ-opioid receptors; settings: rat brain synaptosomes; data taken from Balboni et al., J. Med Chem. 2004; read-out: Receptor affinity Ki^u; cited from earlier work
δ-opioid receptors [10] = target: T4, δ-opioid receptors; settings: cited from earlier work

T1 sequence (P41143 whole entry): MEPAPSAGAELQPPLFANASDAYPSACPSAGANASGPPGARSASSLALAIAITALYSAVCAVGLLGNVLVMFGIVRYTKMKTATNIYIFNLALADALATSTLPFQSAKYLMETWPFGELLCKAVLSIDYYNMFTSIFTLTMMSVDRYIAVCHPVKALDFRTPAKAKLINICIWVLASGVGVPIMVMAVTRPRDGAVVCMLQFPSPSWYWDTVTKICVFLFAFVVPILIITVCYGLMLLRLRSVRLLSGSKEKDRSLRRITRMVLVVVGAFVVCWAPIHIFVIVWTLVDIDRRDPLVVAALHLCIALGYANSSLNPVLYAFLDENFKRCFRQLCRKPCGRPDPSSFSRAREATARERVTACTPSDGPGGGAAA
T2 sequence (P33533 whole entry): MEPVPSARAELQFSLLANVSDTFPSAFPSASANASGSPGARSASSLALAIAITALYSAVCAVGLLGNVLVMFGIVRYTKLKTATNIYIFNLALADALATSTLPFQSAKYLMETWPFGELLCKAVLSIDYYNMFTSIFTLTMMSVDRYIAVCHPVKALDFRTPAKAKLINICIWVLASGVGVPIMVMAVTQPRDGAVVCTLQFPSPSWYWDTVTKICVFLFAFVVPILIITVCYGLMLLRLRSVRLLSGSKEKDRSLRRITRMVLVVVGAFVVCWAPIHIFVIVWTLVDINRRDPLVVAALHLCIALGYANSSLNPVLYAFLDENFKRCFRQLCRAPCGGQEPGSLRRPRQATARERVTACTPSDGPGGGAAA
T4 sequence (P32300 whole entry): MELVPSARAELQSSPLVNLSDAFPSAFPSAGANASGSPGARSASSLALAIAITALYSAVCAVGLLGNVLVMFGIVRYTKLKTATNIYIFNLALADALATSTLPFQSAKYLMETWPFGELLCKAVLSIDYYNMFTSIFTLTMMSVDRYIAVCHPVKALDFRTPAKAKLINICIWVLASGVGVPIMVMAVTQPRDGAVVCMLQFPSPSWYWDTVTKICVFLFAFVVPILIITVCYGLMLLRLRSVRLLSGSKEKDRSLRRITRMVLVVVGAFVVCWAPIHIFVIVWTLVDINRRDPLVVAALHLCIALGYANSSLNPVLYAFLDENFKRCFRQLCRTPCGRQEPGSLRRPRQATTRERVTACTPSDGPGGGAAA
T5 sequence (P32300 whole entry): as above
T3 sequence (P33535 whole entry): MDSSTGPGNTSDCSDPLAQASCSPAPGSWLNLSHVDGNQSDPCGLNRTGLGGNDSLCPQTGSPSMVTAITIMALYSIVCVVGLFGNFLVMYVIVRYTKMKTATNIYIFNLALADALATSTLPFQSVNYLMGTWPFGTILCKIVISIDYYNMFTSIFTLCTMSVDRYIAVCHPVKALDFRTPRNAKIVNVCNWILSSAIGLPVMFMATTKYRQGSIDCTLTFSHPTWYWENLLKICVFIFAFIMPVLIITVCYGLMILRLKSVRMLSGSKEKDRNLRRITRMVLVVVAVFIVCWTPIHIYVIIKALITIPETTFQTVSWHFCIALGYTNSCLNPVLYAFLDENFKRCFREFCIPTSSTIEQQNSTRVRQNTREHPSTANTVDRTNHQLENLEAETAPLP

2′,6′-dimethyl-L-tyrosine-1,2,3,4-tetrahydroisoquinoline-3-carboxylic acid [Dmt-Tic]
Ki^μ/Ki^δ (δ-opioid receptor [1]; literature (Salvadori et al. 1995 and others)): 150,780
pA2 (δ-opioid receptor [2]): 8.2

Cc1cc(O)cc(C)c1C[C@H](N)C(=O)N1Cc2ccccc2C[C@H]1C(=O)N[C@@H](CCC(=O)O)C(=O)NCCCCCNC(=S)Nc1ccc(-c2c3ccc(=O)cc-3oc3cc(O)ccc23)c(C(=O)O)c1 (as salt: TFA) [Compound 3, 5-(3-{5-[2-({2-[2-amino-3-(4-hydroxy-2,6-dimethyl-phenyl)-propionyl]-1,2,3,4-tetrahydro-isoquinoline-3-carbonyl}-amino)-4-carboxy-butyrylamino]-pentyl}-thioureido)-2-(6-hydroxy-3-oxo-3H-xanten-9-yl)-benzoic acid]
melting point: 169 to 171 °C

Cc1cc(O)cc(C)c1C[C@H](N)C(=O)N1Cc2ccccc2C[C@H]1C(=O)N[C@@H](CCC(=O)O)C(=O)NCCCCCN [Compound 2, H-Dmt-Tic-Glu-NH-(CH2)5—NH2]
Ki (δ-opioid receptors [3]): 0.22 ± 0.04 nM
fold decrease of δ-opioid receptor selectivity (δ-opioid receptors [3]): 13 fold
fold decrease in affinity for δ-opioid receptors (δ-opioid receptors [3]; compared to reference H-Dmt-Tic-Glu-NH2 (1)): 3.7 fold
μ/δ (δ-opioid receptor selectivity) (δ-opioid receptors [3]): 1700
Ki (μ-opioid receptors [4]): 380 ± 65 nM
fold increase of μ-opioid receptor affinity (μ-opioid receptors [4]; compared to the reference tripeptide (1)): 3.6 fold
Kb (δ-opioid receptors [5]): 1.58 nM
MVD activity type (δ-opioid receptors [5]; against [D-Ala2]deltorphin I dose-response curves): competitive antagonist
MVD pA2 (δ-opioid receptors [5]; antagonism of deltorphin C, Schild plot): 8.8
IC50 (μ-opioid receptors [6]): > 1000 nM
melting point: 163 to 165 °C

Cc1cc(O)cc(C)c1C[C@H](N)C(=O)N1Cc2ccccc2C[C@H]1C(=O)N[C@@H](CCC(=O)O)C(=O)NCCCCCNC(=S)Nc1ccc(-c2c3ccc(=O)cc-3oc3cc(O)ccc23)c(C(=O)O)c1 [Compound 3, 5-(3-{5-[2-({2-[2-amino-3-(4-hydroxy-2,6-dimethyl-phenyl)-propionyl]-1,2,3,4-tetrahydro-isoquinoline-3-carbonyl}-amino)-4-carboxy-butyrylamino]-pentyl}-thioureido)-2-(6-hydroxy-3-oxo-3H-xanten-9-yl)-benzoic acid]
Ki (δ-opioid receptors [3]): 0.035 ± 0.01 nM
fold more δ-selective than fluorescent naltrindole derivative (δ-opioid receptors [3]; comparator from Korlipara et al. 1997): 857 fold
fold more δ-selective than fluorescent naltrindole derivative (δ-opioid receptors [3]; comparator from Kshirsagar et al. 1998): 115 fold
fold decrease of δ-opioid receptor selectivity (δ-opioid receptors [3]): 5 fold
δ-opioid receptor binding affinity (in words) (δ-opioid receptors [3]; rat brain synaptosomes): subnanomolar
μ/δ (δ-opioid receptor selectivity) (δ-opioid receptors [3]): 4,370
Ki (μ-opioid receptors [4]): 152 ± 44 nM
residual fluorescence after antagonist preincubation (mouse δ-opioid receptors; NG108-15 cells, competition with δ-opioid receptor antagonists): ca. 10%

Oc1ccc2c3c1O[C@H]1c4[nH]c5ccccc5c4C[C@@]4(O)[C@@H](C2)N(CC2CC2)CC[C@]314 [naltrindole]
blockage of fluorescence of probe 3 bound to δ-opioid receptors (mouse δ-opioid receptors): essentially eliminated the fluorescence
blockage of fluorescence of probe 3 bound to δ-opioid receptors (mouse δ-opioid receptors; listed as NTI): considerable blockage of the fluorescence

Ac-Glu-NH(CH2)5—NH—(C═S)—NH-fluorescein
fluorescence emission maximum [7]: 515 nm

H-Dmt-Tic-Glu-NH2 [Compound 1]
IC50 (μ-opioid receptors [6]): > 1000 nM
Ki (δ-opioid receptors [8]): 0.06 ± 0.008 nM
Ki (μ-opioid receptors [9]): 1360 ± 268 nM
MVD activity type (δ-opioid receptors [10]; Balboni et al., J. Med. Chem. 2004): partial δ-opioid agonist
IC50 (δ-opioid receptors [10]; agonist activity, inhibition of electrically-evoked twitch, data taken from Balboni et al. 2004, read-out: MVD (IC50)): 2.58 ± 0.8 nM

H-Tyr-Tic-Phe-(Phe)-OH [TIPP]
δ-selectivity (δ-opioid receptor [1]; Arttamangkul et al., Mol. Pharmacol. 2000): > 20,000
